Measurements from patent US9273054B2, “Substituted pyrimido[1,6-a]pyrimidines as Lp-PLA2 inhibitors” (Glaxo Group Limited, priority 2011, dated 2016).

Key:
EAE rats = experiment: Rat experimental autoimmune encephalomyelitis (EAE) model, preventive treatment; type: in vivo
Procedure: A further study was carried out to study the impact of Lp-PLA2 inhibitors on modulating M1/M2 imbalance. In this study, rats were induced to develop experimental autoimmune encephalomyelitis (EAE) by immunization with myelin basic protein (MBP) antigen and treated with a known Lp-PLA2 inhibitor: 5-((9-Methoxy-4-oxo-6,7-dihydro-4H-pyrimido[6,1-a]isoquinolin-2-yl)oxy)-2-(3-(trifluoromethyl)phenoxy)benzonitrile (See PCT application no. PCT/CN2011/001597). In this preventive treatment model, the compound was administered at day 0 (day of immunization) and continued to administer until day 22. The study lasted for 25 days. Rats were subsequently monitored for symptoms of EAE. Rats were immunized with MBP to develop EAE and symptoms were monitored daily. Plasma Lp-PLA2 activity, O×LDL, and LysoPC concentration were determined at different time points through the course of EAE.

[1] = test system: proinflammatory (M1) and anti-inflammatory (M2) markers in macrophages; experiment: Ex vivo analysis of M1 and M2 markers in macrophages of EAE rats by realtime PCR; design: species or system rat; conditions: splenic macrophages day 13 post MBP-immunization and CNS infiltrating macrophages
Procedure: Ex vivo analysis of proinflammatory (M1) and anti-inflammatory (M2) markers in control and compound treated EAE rats. Splenic macrophages were harvested at day 13 post MBP-immunization and assayed for expression of a variety of markers by realtime PCR. CNS infiltrating cells were harvested and macrophages were analyzed for expression of M1 and M2 markers by realtime PCR.

## COc1ccc2c(c1)CCn1c-2cc(Oc2ccc(Oc3cccc(C(F)(F)F)c3)c(C#N)c2)nc1=O [5-((9-Methoxy-4-oxo-6,7-dihydro-4H-pyrimido[6,1-a]isoquinolin-2-yl)oxy)-2-(3-(trifluoromethyl)phenoxy)benzonitrile]
EAE rats; rat EAE plasma
  plasma Lp-PLA2 activity: decreased Lp-PLA2 activity
  plasma LysoPC levels: decreased
EAE rats; rat EAE, MBP immunization, administered day 0 until day 22
  clinical disease (EAE): reduction in clinical disease
[1]
  M1 markers expression: decrease in M1 markers
  M2 markers expression: increase in M2 markers
